Consider one compound from US10766882B2, “1,2-naphthoquinone based derivative and method of preparing the same” (YUNGJIN PHARM. CO., LTD., priority 2013, dated 2020).

One test concerns C57BLKS/J db/db mice. In words: Glucose level and glycosylated hemoglobin (Hb1Ac) in fasted diabetic mice (db/db). It is filed as in vivo. The following applies: Exp. Ex. 5, FIG. 9: 10 week-old db/db mice, 40, 80, 120 mg/kg oral, fasted for 14 hours, vs 0.1% SLS controls. How it is done:
10 week-old C57BLKS/J db/db mice having genetic obesity characteristics available from ORIENTBIO were prepared. Two mice were raised in each polycarbonate breeding cage (200 W×260 L×130H (mm), Three-shine) in which temperature was 22 to 24° C., relative humidity was 30 to 50%, illuminance was 150 to 300 lux, night and day were 12 hours, and exhaust was performed at 10 to 15 air changes per hour. As a feed, low fat diet (11.9 kcal % fat, 5053, Labdiet) manufactured by ORIENTBIO was used. The feed was contained in a feeder and free intake was allowed. As drinking water, water, which was contained in a 250 mL polycarbonate based bottle, purified through a filter and a sterilizer was used and free intake was allowed.
The compound according to Example 1 synthesized in the present invention was orally administered to three C57BLKS/J db/db mice in amounts of 40 mg/kg, 80 mg/kg, and 120 mg/kg, respectively. For administration, a disposable syringe fitted with a sonde for oral administration was used and 10 ml/kg of the compound was orally administered into the stomach. As controls, three C57BLKS/J db/db mice were administered 0.1% SLS in an amount of 120 mg/kg in the same manner as described above. After administration, the mice were fasted for 14 hours and glucose levels and glycosylated hemoglobin thereof were measured. Results are illustrated in FIG. 9 below.

Another test concerns Cells. The test can be described thus: Measurement of lactate change amount within cells. It is filed as cell-based. The following applies: PCA extract of cells, lactate measured from supernatant (Megazyme, K-LATE). The procedure, abridged:
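Cells were extracted in 6% perchloric acid and centrifuged (13,000 rpm, 10 min), and the dried pellet was weighed. The supernatant was neutralised with 1 M KOH, brought up in 0.33 M potassium phosphate pH 7.5 and re-centrifuged. Lactate was measured in this supernatant with a commercial lactate kit.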

For a further test, the target named is NQO1 protein (Homo sapiens, UniProt P15559). The test can be described thus: NQO1 activity measurement (cytochrome C reduction). It is filed as biochemical. The settings on record: 5 ng NQO1 protein, 200 μM NADH, 77 μM cytochrome C, 37° C., absorbance 550 nm for 10 minutes.
Sequence of NQO1 protein (P15559 whole entry, species assumed): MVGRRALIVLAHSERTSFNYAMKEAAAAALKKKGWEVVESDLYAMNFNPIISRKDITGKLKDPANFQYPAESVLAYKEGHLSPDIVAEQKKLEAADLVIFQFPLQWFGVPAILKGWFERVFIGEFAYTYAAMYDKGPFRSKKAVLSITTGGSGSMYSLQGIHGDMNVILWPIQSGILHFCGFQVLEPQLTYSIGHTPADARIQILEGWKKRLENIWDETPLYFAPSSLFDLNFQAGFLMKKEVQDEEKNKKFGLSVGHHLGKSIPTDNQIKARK

On to `CC(C)c1nc2c([nH]1)C(=O)C(=O)c1ccccc1-2` [Example 1, 2-isopropyl-1H-naphtho[2,1-d]imidazole-4,5-dione], for which, in the test with C57BLKS/J db/db mice, the glucose level result is “significantly decreased” and the “glycosylated hemoglobin (Hb1Ac)” value is listed as “significantly decreased”. The “Lactate change amount within cells (nmol/mg cell)” value with Cells is listed as 6.1 nmol/mg cell. Besides, the “NQO1 activity (5 μM, [nmol cytochrome C reduced/min/μg protein])” value on NQO1 protein is 177 nmol cytochrome C reduced/min/μg protein.
